In patent publication US20260345609A1, “METHODS FOR PROMOTING PERSISTENCE OF CELL THERAPY” (Legend Biotech Ireland Limited, priority 2022, published 2026):

Key:
CAR-γδT cells = experiment: Effect of MTX concentration on proliferation of CAR-γδT cells in vitro (AOPI counting); format: cell-based, human
Method: 50 mL of fresh peripheral blood of volunteers was extracted, mixed with lymphocyte separation medium, and then peripheral blood mononuclear cells (PBMC) were separated by density gradient centrifugation. The isolated lymphocytes were overnight cultured in RPMI 1640 medium, supplemented with L-glutamine (2 mM, Sigma-Aldrich), penicillin (100 IU/mL)/streptomycin (100 μg/mL) (Sigma-Aldrich, Missouri, USA), 10% serum (Gibco, Massachusetts, USA), zoledronic acid (5 μM, Actavis, New Jersey, USA), IL-2 (100 IU/mL; Aldesleukin, Novartis, Frimley, UK). The γδT cells selected above were transduced with lentiviral vector expressing an anti-CLL1 CAR and DHFR L22F/F31S at a multiplicity of infection (MOI) of 5. After 48 hours of transduction, IL-2 (100 IU/mL) was added every 2-3 days to expand T cells expressing the anti-CLL1 CAR (hereinafter referred to as CAR-γδT cells).
Cultured with the addition of methotrexate (MTX) at the concentrations of 0 μM, 0.01 μM, 0.05 μM, 0.1 μM, 1 μM, or 2 μM, the cell number of LUCAR-20SD cells at day0 day3 day6 day9, day 12, and the cell number of CAR-γδT cells at day0 day2 day5 day7 were counted by AOPI. Cell proliferation curves were plotted separately.

[1] = system: host PBMC cells (HLA-A2+); experiment: Effect of combination of fludarabine, cyclophosphamide and MTX on host immune cells (HLA-A2+) in peripheral blood; format: in vivo, NCG mice; human host cells; settings: day 13
Text: pLVX-Puro vector purchased from Clontech was subjected to the digestion reaction of ClaI and EcoRI restriction enzymes. The CMV promoter was replaced with the human EF1α promoter (GenBank: J04617.1) to obtain the pLVX-hEF1α vector. The fusion gene sequence of SIV Nef_M116-P2A-DHFR L22F/F31S-IRES-CD8α SP-anti-BCMA antibody-CD8α Hinge-CD8αTM-4-1BB-ITAM010, hereinafter referred to as “LUCAR-BCMA” (SEQ ID NO: 6) was cloned into the expression plasmid pLVX-hEF1α to form the LUCAR-BCMA expression plasmid named as M1588. The anti-BCMA antibody contained herein has been disclosed in PCT/CN2020/136570. With reference to the virus vector production and primary T transduction in Example 1, LUCAR-BCMA cells were prepared.
Severely immunodeficient NCG mice were used for in vivo efficacy evaluation. The specific embodiment is as follows: at day-5.5 mice were intravenously inoculated with 20×10^6 PBMC cells (HLA-A2+) to construct host immune cells, and at day0 the mice were intravenously inoculated with 3×10^6 LUCAR-BCMA cells (HLA-A2−) as transplanted cells. The modeled mice were then treated with the following different combination of fludarabine, cyclophosphamide, and MTX to evaluate the inhibitory effect of the combination regimen on the host's immune system. “/” in Table 2 means no drug was administrated. The dose of fludarabine in each experimental group was 0.1623 mg/mice, the dose of cyclophosphamide was 1.623 mg/mice and the dose of MTX was 15.15 mg/kg (G3 and G4) or 75.45 mg/kg (G5 and G6). At day 13, the end point of the experiment, the peripheral blood white blood cells (WBC) of mice were measured. The peripheral blood cells of mice were resuspended in DPBS, and then 1 μL of FITC anti human CD45 (Biolegend, 304038) and 1 μL of PE anti human HLA-A2 (Biolegend, 343306) were added into the cell resuspension and incubated at 4° C. for 30 min. […] The proliferation of host PBMC cells in the peripheral blood of mice was evaluated, which reflected the effect of different combinations of drugs on host immunity in vivo.

LUCAR-20SD cells = experiment: Effect of MTX concentration on proliferation of LUCAR-20SD cells in vitro (AOPI counting); format: cell-based, human
Text: pLVX-Puro vector purchased from Clontech was subjected to the digestion reaction with ClaI and EcoRI restriction enzymes, and the CMV promoter was replaced with a human EFlapromoter (GenBank: J04617.1) to obtain the pLVX-hEF1α vector. The gene of DHFR L22F/F31S (SEQ ID NO: 1) was inserted between SIV NEF M116 and CD20 CAR of LCAR-UL186S, which was disclosed in PCT patent applications No. PCT/CN2020/112181 and PCT/CN2020/112182. The fusion gene sequence of SIV Nef_M116-P2A-DHFR L22F/F31S-IRES-CD8α SP-CD20 scFv (Leu16)-CD8α Hinge-CD8α TM-4-1BB-ITAM010, hereinafter referred to as “LUCAR-20SD” (SEQ ID NO: 4) was cloned into the expression plasmid pLVX-hEF1α to form the LUCAR-20SD expression plasmid named as M1586. The recombinant expression plasmid M1586 was extracted, mixed with psPAX2 and pMD2. G helper plasmids in a certain proportion, and co-transfected into HEK 293T cells. After 60 h of transfection, the cell culture supernatant containing the virus was collected and centrifuged at 4° C. and 3000 rpm for 5 min. After the supernatant was filtered through a 0.45 μm filter, the 500 KD hollow fiber membrane column tangential flow technique was used to further concentrate to prepare a lentivirus concentrate, which was stored at-80° C. for later use.
50 mL of fresh peripheral blood of volunteers was extracted, and mixed with lymphocyte separation medium. The peripheral blood mononuclear cells (PBMC) were separated by density gradient centrifugation. The cells were labeled with magnetic beads using Pan T Cell Isolation Kit (Miltenyi Biotech), and T lymphocytes were isolated and purified, and then activated by CD3/CD28 magnetic beads. After culturing for 24 hours in a 37° C., 5% CO2 incubator, 5×10^6 activated T lymphocytes were infected with the lentiviral vector of LUCAR-20SD. […]
Cultured with the addition of methotrexate (MTX) at the concentrations of 0 μM, 0.01 μM, 0.05 μM, 0.1 μM, 1 μM, or 2 μM, the cell number of LUCAR-20SD cells at day0 day3 day6 day9, day 12, and the cell number of CAR-γδT cells at day0 day2 day5 day7 were counted by AOPI. […]

CN(Cc1cnc2nc(N)nc(N)c2n1)c1ccc(C(=O)N[C@@H](CCC(=O)O)C(=O)O)cc1 [MTX, methotrexate]
proliferation of CAR-γδT cells compared with 0 μM MTX (CAR-γδT cells; 0.01 μM to 0.1 μM MTX, day 7, p>0.05): not significantly different | proliferation of CAR-γδT cells compared with 0 μM MTX (CAR-γδT cells; 1 μM MTX and 2 μM MTX, day 7, p<0.05, dose-dependent): significantly decreased | minimal effective concentration (CAR-γδT cells; Homo sapiens, 168 h, day 7, read-out: MTX concentration that affects the proliferation of CAR-γδT cells): ≥ 1 µM | inhibitory effect of MTX on the host immune cells, dose relation ([1]; 15.15 mg/kg (G3) vs 75.45 mg/kg (G5)): dose-dependent | inhibitory effect on proliferation of host cells ([1]; FC regimen or MTX alone): the inhibitory effect was limited | number of host cells in the peripheral blood compared with G1 blank group ([1]; G2: FC, G3: 15.15 mg/kg MTX, G5: 75.45 mg/kg MTX): lower than that of the G1 blank group | proliferation of LUCAR-20SD cells compared with 0 μM MTX (LUCAR-20SD cells; 0.01 μM to 1 μM MTX, day 12, p>0.05): no significant difference in cell proliferation | proliferation of LUCAR-20SD cells compared with 0 μM MTX (LUCAR-20SD cells; 2 μM MTX, day 12, p<0.05): decreased significantly | minimal effective concentration (LUCAR-20SD cells; Homo sapiens, 288 h, day 12, read-out: MTX concentration that affects the proliferation of LUCAR-20SD cells): ≥ 2 µM
